Laboratory results: US10662159B2, “ABHD6 and dual ABHD6/MGL inhibitors and their uses” (MAKScientific, LLC, priority 2017, dated 2020)
pIC50: −log10 of the molar value.

Experiments:
Assay type in all cases: biochemical
hMGL = hMGL (Homo sapiens (Human), UniProt Q99685); assay: Fluorescent assay for hMGL (AHMMCE substrate hydrolysis); conditions: E. coli lysate containing hMGL, read-out: hMGL Inhibition IC50
Method: (§1) Certain compounds were tested for their ABHD6 and dual ABHD6/MGL inhibitory activity, which is expressed as % of inhibition or IC50 values in Table 1. The percentage of inhibition describes the percentage by which the inhibitor reduces the velocity/rate of 2-AG hydrolysis by ABHD6, and MGL or AEA hydrolysis by FAAH. […] The lower the IC50 values, the higher its inhibitory activity. A detailed description of the methods used to test inhibitory activity of compounds is given below.
Preparation of Human MAGL (hMAGL)
Fluorescent Assay Protocol for hMGL
This medium throughput assay involved a 96-well plate format in which hMGL activity was monitored by the hydrolysis of the substrate […] (AHMMCE) to form the fluorescent product, coumarin. […] Upon the addition of AHMMCE, the reaction was incubated at 25° C. for 120 min; fluorescence readings were taken every 15 min at 360 nm/460 nm (λexcitation/λemission) using a Synergy HT Plate Reader (Bio-Tek, Winooski, Vt.). […] External standards were used to convert relative fluorescence units to the amount of 4-methylcoumarin formed. All MGL assays were performed in triplicate for each inhibitor concentration, and IC50 values were calculated using Prizm software (GraphPad Software, Inc., San Diego, Calif.).

hABHD6 = hABHD6 (Homo sapiens (Human), UniProt Q9BV23); assay: Fluorescent assay for hABHD6 (AHMMCE substrate hydrolysis); conditions: membrane fraction containing full-length hABHD6, 20 μM AHMMCE; read-out: ABHD6 Inhibition IC50
hABHD6, sequence (Q9BV23 whole entry): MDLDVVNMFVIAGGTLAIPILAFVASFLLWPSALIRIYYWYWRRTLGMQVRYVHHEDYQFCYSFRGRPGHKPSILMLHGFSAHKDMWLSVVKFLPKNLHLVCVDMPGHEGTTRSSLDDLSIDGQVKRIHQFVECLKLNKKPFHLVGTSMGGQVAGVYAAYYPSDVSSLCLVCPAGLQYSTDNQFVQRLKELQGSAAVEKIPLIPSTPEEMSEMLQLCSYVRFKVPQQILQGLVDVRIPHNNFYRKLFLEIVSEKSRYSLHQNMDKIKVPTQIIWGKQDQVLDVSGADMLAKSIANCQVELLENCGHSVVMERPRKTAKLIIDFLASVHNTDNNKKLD
Method: as §1
Fluorescent Assays Protocol for hABHD6
Initial Fluorescent Inhibition Assay (3-Point)—
In each well of a 96-well plate 8 μL of membrane fraction containing full-length hABHD6 (1 μg total protein) was mixed with 168 μL of assay buffer (50 mM Tris-HCl, pH 7.6), and 20 μL of diluted compound (diluted in a dilution buffer consisting of 50% DMSO/50% assay buffer v/v). Each plate was incubated at RT for 15 minutes before adding 4 μL of 1 mM AHMMCE substrate (final concentration of 20 μM AHMMCE and final volume of 200 μL). The reaction was allowed to proceed for 1 hr at RT before the fluorescence was read at λex 360 nm and λem 460 nm and the inhibition calculated. Each experiment can test 8 compounds at three concentrations (usually 10 μM, 1 μM, and 100 nM).
IC50 Determination Assay (8-Point)—
A more detailed assay with an extended range tests compounds over 8 concentrations depending on the pre-determined approximate IC50 value from the initial screen. […] The assay was conducted in 96 well plate with each well containing the same reaction mixture detailed above in the 3-point screen. The relative fluorescence is quantified into coumarin produced by using a standard curve of HMMC in triplicate on each plate. Results are normalized to the negative control wells and the IC50 is determined using a non-linear regression curve fit in Prism, version 5 (GraphPad, San Diego, Calif.).

Rat ΔTM FAAH = Rat ΔTM FAAH (Rattus norvegicus (Rat), UniProt P97612); assay: Fluorescent assay for rat ΔTM FAAH (AAMCA substrate); conditions: ΔTM rFAAH, AAMCA 20 μM; read-out: rFAAH Inhibition IC50
Rat ΔTM FAAH, sequence (P97612 30-579): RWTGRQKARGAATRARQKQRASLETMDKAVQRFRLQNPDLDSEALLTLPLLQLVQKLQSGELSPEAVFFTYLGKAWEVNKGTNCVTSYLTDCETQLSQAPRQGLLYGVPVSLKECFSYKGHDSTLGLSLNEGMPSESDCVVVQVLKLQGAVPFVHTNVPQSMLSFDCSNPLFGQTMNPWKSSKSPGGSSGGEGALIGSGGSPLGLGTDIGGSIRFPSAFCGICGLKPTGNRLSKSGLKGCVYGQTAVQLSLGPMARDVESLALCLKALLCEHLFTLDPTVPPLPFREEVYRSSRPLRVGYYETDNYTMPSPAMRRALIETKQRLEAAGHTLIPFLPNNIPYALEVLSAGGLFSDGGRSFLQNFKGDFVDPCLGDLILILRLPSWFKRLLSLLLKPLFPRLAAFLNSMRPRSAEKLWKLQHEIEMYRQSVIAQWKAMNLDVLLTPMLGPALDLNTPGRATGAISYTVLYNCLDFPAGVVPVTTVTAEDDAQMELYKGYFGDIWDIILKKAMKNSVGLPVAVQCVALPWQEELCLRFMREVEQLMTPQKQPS
Method: Certain compounds were tested for their ABHD6 and dual ABHD6/MGL inhibitory activity, which is expressed as % of inhibition or IC50 values in Table 1. The percentage of inhibition describes the percentage by which the inhibitor reduces the velocity/rate of 2-AG hydrolysis by ABHD6, and MGL or AEA hydrolysis by FAAH. The IC50 is the concentration of the inhibitor, which results in 50% inhibition of the velocity/rate of 2-AG hydrolysis by ABHD6 or MGL. The IC50 is the concentration of the inhibitor, which results in 50% inhibition of the velocity/rate of AEA hydrolysis by FAAH. The lower the IC50 values, the higher its inhibitory activity. A detailed description of the methods used to test inhibitory activity of compounds is given below.
Example 79. Preparation of Transmembrane Domain-Deleted Rat FAAH (ΔTM rFAAH)
Rat ΔTM FAAH was expressed in E. coli cells and purified using the procedure disclosed by Patricelli et al. Biochemistry (1998) 37: 15177-15187.
Example 81. Fluorescent Assay Protocol for Rat ΔTM FAAH
The fluorescence reading at the 3 hour time point (linear enzyme kinetics) was used to calculate percent inhibition based on control assays without inhibitor present. All FAAH assays were performed in triplicate for each inhibitor concentration, and IC50 values determined using Prizm software (GraphPad Software, Inc.).

hMGL, sequence (Q99685 whole entry): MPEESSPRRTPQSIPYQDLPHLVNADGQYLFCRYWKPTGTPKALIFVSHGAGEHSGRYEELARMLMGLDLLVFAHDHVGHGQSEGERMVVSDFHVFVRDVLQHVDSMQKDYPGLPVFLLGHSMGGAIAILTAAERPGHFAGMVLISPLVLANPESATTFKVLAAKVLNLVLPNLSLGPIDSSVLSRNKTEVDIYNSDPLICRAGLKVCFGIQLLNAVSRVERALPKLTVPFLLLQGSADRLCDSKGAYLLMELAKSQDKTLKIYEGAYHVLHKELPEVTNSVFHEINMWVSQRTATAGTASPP

SMILES | pIC50 (hMGL) | pIC50 (hABHD6) | pIC50 (Rat ΔTM FAAH)
CN1CCN(c2ccc3c(c2)CN(C(=O)OC(C(F)(F)F)C(F)(F)F)C3)CC1 [Example 29, 1,1,1,3,3,3-Hexafluoropropan-2-yl 5-(4-methylpiperazin-1-yl)isoindoline-2-carboxylate] | < 6.00 | 6.00 to 7.00 | < 6.00
O=C(O[C@H](CO)C(F)(F)F)N1CCc2c(Br)cccc2C1 [Example 40, (R)-1,1,1-trifluoro-3-hydroxypropan-2-yl 5-bromo-3,4-dihydroisoquinoline-2(1H)-carboxylate] | < 6.00 | 7.00 to 8.00 | < 6.00
O=C(OC(C(F)(F)F)C(F)(F)F)N1Cc2ccc(N3CCCC3)cc2C1 [Example 30, 1,1,1,3,3,3-Hexafluoropropan-2-yl 5-(pyrrolidin-1-yl)isoindoline-2-carboxylate] | < 6.00 | 7.00 to 8.00 | < 6.00
O=C(OC(C(F)(F)F)C(F)(F)F)N1CC2(CCC(Oc3cccc(F)c3)C2)C1 (centres unmarked) [Example 59, 1,1,1,3,3,3-Hexafluoropropan-2-yl 6-(3-fluorophenoxy)-2-azaspiro[3.4]octane-2-carboxylate] | 7.00 to 8.00 | 7.00 to 8.00 | 7.00 to 8.00
O=C(COc1ccc2c(c1)CN(C(=O)OC(C(F)(F)F)C(F)(F)F)C2)N1CCOCC1 [Example 50, 1,1,1,3,3,3-Hexafluoropropan-2-yl 5-(2-morpholino-2-oxoethoxy)isoindoline-2-carboxylate] | 7.00 to 8.00 | 7.00 to 8.00 | < 6.00
O=C(OC(C(F)(F)F)C(F)(F)F)N1CCc2c(cccc2OCCCF)C1 [Example 41, 1,1,1,3,3,3-Hexafluoropropan-2-yl 5-(3-fluoropropoxy)-3,4-dihydroisoquinoline-2(1H)-carboxylate] | < 6.00 | 7.00 to 8.00 | < 6.00
COc1cccc2c1CCN(C(=O)OC(C(F)(F)F)C(F)(F)F)C2 [Example 22, 1,1,1,3,3,3-Hexafluoropropan-2-yl 5-methoxy-3,4-dihydroisoquinoline-2(1H)-carboxylate] | < 6.00 | 7.00 to 8.00 | < 6.00
CC1(C)C2C(=O)N(OC(=O)N3Cc4ccc(N5CCOCC5)cc4C3)C(=O)C21 (centres unmarked) [Example 39, 6,6-Dimethyl-2,4-dioxo-3-azabicyclo[3.1.0]hexan-3-yl 5-morpholinoisoindoline-2-carboxylate] | < 6.00 | 7.00 to 8.00 | < 6.00
O=C(OC(C(F)(F)F)C(F)(F)F)N1CCc2c(cccc2-c2ccccc2)C1 [Example 28, 1,1,1,3,3,3-Hexafluoropropan-2-yl 5-phenyl-3,4-dihydroisoquinoline-2(1H)-carboxylate] | < 6.00 | 6.00 to 7.00 | < 6.00
O=C(OC(C(F)(F)F)C(F)(F)F)N1Cc2ccc(-c3ccccc3)cc2C1 [Example 25, 1,1,1,3,3,3-Hexafluoropropan-2-yl 5-phenylisoindoline-2-carboxylate] | < 6.00 | 7.00 to 8.00 | < 6.00
O=C1C2CC2C(=O)N1ON1CCc2c(Br)cccc2C1 (centres unmarked) [Example 37, 3-((5-Bromo-3,4-dihydroisoquinolin-2(1H)-yl)oxy)-3-azabicyclo[3.1.0]hexane-2,4-dione] | < 6.00 | 6.00 to 7.00 | < 6.00
O=C(OC(C(F)(F)F)C(F)(F)F)N1Cc2ccc(N3CCOCC3)cc2C1 [Example 32, 1,1,1,3,3,3-Hexafluoropropan-2-yl 5-morpholinoisoindoline-2-carboxylate] | < 6.00 | 7.00 to 8.00 | < 6.00
COc1ccc2c(c1)CN(C(=O)ON1C(=O)C3C(C1=O)C3(C)C)C2 (centres unmarked) [Example 38, 6,6-Dimethyl-2,4-dioxo-3-azabicyclo[3.1.0]hexan-3-yl 5-methoxyisoindoline-2-carboxylate] | < 6.00 | < 6.00 | < 6.00
O=C(OC(CF)CF)N1CCc2c(Br)cccc2C1 [Example 5, 1,3-Difluoropropan-2-yl 5-bromo-3,4-dihydroisoquinoline-2(1H)-carboxylate] | < 6.00 | < 6.00 | < 6.00
O=C(OC(C(F)(F)F)C(F)(F)F)N1Cc2ccc(N3CCS(=O)(=O)CC3)cc2C1 [Example 31, 1,1,1,3,3,3-Hexafluoropropan-2-yl 5-(1,1-dioxidothiomorpholino)isoindoline-2-carboxylate] |  | 7.00 to 8.00 | < 6.00
O=C(OC(C(F)(F)F)C(F)(F)F)N1Cc2ccc(NCCN3CCOCC3)cc2C1 [Example 47, 1,1,1,3,3,3-Hexafluoropropan-2-yl 5-((2-morpholinoethyl)amino)isoindoline-2-carboxylate] | < 6.00 | 7.00 to 8.00 | < 6.00
CC1(C)C2C(=O)N(OC(=O)N3CCc4c(Br)cccc4C3)C(=O)C21 (centres unmarked) [Example 35, 6,6-Dimethyl-2,4-dioxo-3-azabicyclo[3.1.0]hexan-3-yl 5-bromo-3,4-dihydroisoquinoline-2(1H)-carboxylate] | < 6.00 | 7.00 to 8.00 | < 6.00

The next lines start with the values.

pIC50 (hMGL) | pIC50 (hABHD6) | pIC50 (Rat ΔTM FAAH) | SMILES
< 6.00 | 7.00 to 8.00 | < 6.00 | COc1ccc2c(c1)CCN(C(=O)OC(C(F)(F)F)C(F)(F)F)C2 [Example 23, 1,1,1,3,3,3-Hexafluoropropan-2-yl 6-methoxy-3,4-dihydroisoquinoline-2(1H)-carboxylate]
7.00 to 8.00 | 7.00 to 8.00 | < 6.00 | O=C(OC(C(F)(F)F)C(F)(F)F)N1Cc2ccc(OCCN3CCCCC3)cc2C1 [Example 48, 1,1,1,3,3,3-Hexafluoropropan-2-yl 5-(2-(piperidin-1-yl)ethoxy)isoindoline-2-carboxylate]
< 6.00 | 7.00 to 8.00 | < 6.00 | O=C(OC(C(F)(F)F)C(F)(F)F)N1Cc2ccc(OCCCF)cc2C1 [Example 42, 1,1,1,3,3,3-Hexafluoropropan-2-yl 5-(3-fluoropropoxy)isoindoline-2-carboxylate]
< 6.00 | 7.00 to 8.00 | < 6.00 | O=C(OC(C(F)(F)F)C(F)(F)F)N1Cc2ccc(OCC3CC3)cc2C1 [Example 43, 1,1,1,3,3,3-Hexafluoropropan-2-yl 5-(cyclopropylmethoxy)isoindoline-2-carboxylate]
< 6.00 | 6.00 to 7.00 | < 6.00 | O=C(OC(C(F)(F)F)C(F)(F)F)N1Cc2ccc(OCCN3CCOCC3)cc2C1 [Example 44, 1,1,1,3,3,3-Hexafluoropropan-2-yl 5-(2-morpholinoethoxy)isoindoline-2-carboxylate]
7.00 to 8.00 | 7.00 to 8.00 | < 6.00 | CN(C)CCOc1ccc2c(c1)CN(C(=O)OC(C(F)(F)F)C(F)(F)F)C2 [Example 46, 1,1,1,3,3,3-Hexafluoropropan-2-yl 5-(2-(dimethylamino)ethoxy)isoindoline-2-carboxylate]
7.00 to 8.00 | 7.00 to 8.00 | < 6.00 | O=C(OC(C(F)(F)F)C(F)(F)F)N1Cc2ccc(OCCN3CCCC3)cc2C1 [Example 49, 1,1,1,3,3,3-Hexafluoropropan-2-yl 5-(2-(pyrrolidin-1-yl)ethoxy)isoindoline-2-carboxylate]
